From patent US9938236B2, “Antiviral agents against HBV infection” (DREXEL UNIVERSITY, priority 2012, dated 2018)

Legend:
HBV [1] = test: Antiviral activity in AML12HBV10 cells (HBV DNA dot-blot hybridization); format: cell-based; details: Hepatitis B virus, Table 33, scaffold (XIV) drawing 940, 48 hours
Description: The antiviral efficacy of the compounds of the disclosure, as presented in Tables 21 through 39 were determined in AML12HBV10 cells. AML12HBV10 is an immortalized murine hepatocyte (AML12)-derived stable cell line that supports robust HBV replication in a tetracycline inducible manner (Xu et al.). The cells were seeded into 96 well plates at a density of 2×10^4 cells per well and cultured in DMEM/F12 media with 10% fetal bovine serum in the absence of tetracycline to allow pgRNA transcription and HBV DNA replication. One day after seeding, cells were left untreated or treated with a serial dilution of testing compounds, ranging from 50 μM to 0.39 μM, for 48 hours. Cells were then lysed by adding into each well of 100 μl lysis buffer containing 10 mM Tris-HCl (pH 7.6), 1 mM EDTA, 100 mM NaCl and 1% NP-40 and incubated at 37° C. for 30 minutes. Half amount (50 μl) of cell lysate from each well was combined with equal volume of denaturing solution containing 0.5N NaOH and 1.5M NaCl. After 5 minute incubation, 100 μl of neutralization solution (1M Tris-HCl, pH 7.4, 1.5M NaCl) was added into each well. The denatured cell lysates (totally 200 μl) were applied onto Nylon membrane using 96-well dot-blot manifold (Biorad). HBV DNA in the cell lysates were determined by dot-blot hybridization with alpha-^32P-UTP-labelled riboprobe specific for HBV minus strand DNA.

HBV [2] = test: Antiviral activity in HepDES19 cells (core-associated HBV DNA, Southern blot hybridization); format: cell-based; details: Hepatitis B virus, 144 h, Table 33, scaffold (XIV) drawing 940, 6 days
Description: Two days after seeding, the cells were mock-treated or treated with a serial dilution of compounds of the disclosure, ranging from 10 μM to 0.018 μM, for 6 days in the absence of tetracycline. Upon the completion of treatment, cells were lysed by adding into each well of the 12-well plates 0.5 ml of lysis buffer containing 10 mM Tris-HCl (pH 8.0), 1 mM EDTA, 1% NP40 and 2% sucrose and incubating at 37° C. for 10 minutes. Cell debris and nuclei were removed by centrifugation and the supernatant was mixed with 130 μl of 35% polyethylene glycol (PEG) 8000 containing 1.5 M NaCl. After 1 hour incubation in ice, viral nucleocapsids were pelleted by centrifugation at 6,000×g for 5 min at 4° C., followed by 1 hour digestion at 37° C. in 400 μl of digestion buffer containing 0.5 mg/ml pronase (Calbiochem), 0.5% SDS, 150 mM NaCl, 25 mM Tris-HCl (pH 8.0) and 10 mM EDTA. The digestion mixture was extracted twice with phenol and DNA was precipitated with ethanol, dissolved in TE buffer (10 mM Tris-HC 1, pH 8.0; 0.1 mM EDTA). One half of the DNA sample from each well was resolved by electrophoresis into a 1.5% agarose gel. The gel was then subjected to denaturation in a solution containing 0.5 M NaOH and 1.5 M NaCl, followed by neutralization in a buffer containing 1 M Tris-HCl (pH7.4) and 1.5 M NaCl. DNA was then blotted onto Hybond-XL membrane (GE Health care) in 20×SSC buffer.

SMILES | EC50 (HBV [1]) [nM] | EC50 (HBV [2]) [nM]
CC(C)[C@@H](C)NS(=O)(=O)c1ccc(Cl)c(C(=O)Nc2ccc(F)c(F)c2)c1 [XIV: A=H, B=Cl, C=H, D=H, (R)-2-chloro-N-(3,4-Difluorophenyl)-5-(N-(3-methylbutan-2-yl)sulfamoyl)benzamide] | < 1000 | –
Cc1ccc(S(=O)(=O)N[C@H](C)C(C)C)cc1C(=O)Nc1ccc(F)c(F)c1 [XIV: A=H, B=Me, C=H, D=H, (R)-N-(3,4-Difluorophenyl)-2-methyl-5-(N-(3-methylbutan-2-yl)sulfamoyl)benzamide] | < 1000 | < 1000
COc1ccc(S(=O)(=O)N[C@H](C)C(C)C)cc1C(=O)Nc1ccc(F)c(F)c1 [XIV: A=H, B=OMe, C=H, D=H, (R)-N-(3,4-Difluorophenyl)-2-methoxy-5-(N-(3-methylbutan-2-yl)sulfamoyl)benzamide] | < 1000 | < 1000
CC(C)[C@@H](C)NS(=O)(=O)c1cc(C(=O)Nc2ccc(F)c(F)c2)c(F)cc1F [XIV: A=H, B=F, C=H, D=F, (R)-N-(3,4-Difluorophenyl)-2,4-difluoro-5-(N-(3-methylbutan-2-yl)sulfamoyl)benzamide] | 1000 to 5000 | –
